Laboratory results reported in patent US20240415123A1, “METHODS AND COMPOSITIONS FOR ICAFOLIN HERBICIDE TOLERANCE” (Monsanto Technology LLC, priority 2023, published 2024).

What was measured:
Format in all cases: in vivo
[1] = test system: transgenic soybean plants expressing CYP21; assay: Icafolin herbicide injury rating, greenhouse spray, CYP21 soybean; conditions: for Percent Injury 14 DAT / Percent injury 21 DAT: Table 8; for Percent Injury 14 DAT / injury: 14 DAT
From the text: (§1) The codon-optimized genes were placed into plant transformation cassettes with each CYP coding sequence operably linked to a constitutive expression element comprising the promoter, leader, and intron of Arabidopsis thaliana Ubiquitin 3 (SEQ ID NO:14) and a Medicago truncatula photosystem II terminator (SEQ ID NO:15). Two plant transformation vectors were created, each comprising one of the CYP gene cassettes and an aadA selectable marker expression cassette, conferring resistance to the antibiotics spectinomycin and streptomycin. Soybean cultivar AG3555 seed-derived embryo explants were transformed with the vectors described above by Agrobacterium-mediated transformation using known methods in the art, and positive-transformed plantlets were selected based on growth in the presence of spectinomycin. Plantlets comprising single copy events were grown in the greenhouse to produce R1 seeds. R1 plants were subsequently selected for the homozygous CYP positive plants, either by molecular analysis of young leaf tissue or by seed chipping prior to planting. These selected plants were then screened for tolerance to the icafolin herbicide.
(§2) Herbicide tolerance screening was performed by selecting R1 plants at roughly the V2-V3 developmental stage and applying the icafolin herbicide in a track sprayer under standard greenhouse conditions. Two independent transgenic events per transgene were selected for screening. The herbicide was formulated with 1% v/v methylated seed oil (MSO) and 2.5% v/v ammonium sulfate (AMS) and sprayed with a XR nozzle at 15 gallons per […] (GPA) to mimic field conditions. The icafolin formulation was sprayed at two rates: 5 g active ingredient (ai)/hectare (ha) and 25 g ai/ha. The treated soybean plants were returned to the greenhouse following spray application and allowed to grow under standard conditions. The plants were rated for herbicide injury at approximately 14 and 21 days after treatment (DAT). Untreated transgenic plants and control (wild-type) plants were used for phenotypic comparison. The herbicide injury rating accounts for plant malformation, stunting, chlorosis, necrosis, and plant death relative to the untreated control plants. An injury rating of approximately 90% or above indicates nearly complete plant death. An injury rating of less than 30% indicates partial tolerance and an injury rating of less than 20% indicates good tolerance. Injury ratings were collected and analyzed, and photographs of representative plants were taken.

[2] = test system: transgenic soybean plants expressing CYP15; assay: Icafolin herbicide injury rating, greenhouse spray, CYP15 soybean
From the text: The codon-optimized polynucleotide sequences were placed into plant transformation cassettes with each CYP coding sequence operably-linked to a constitutive expression element comprising the promoter, leader, and intron sequence of Arabidopsis thaliana Ubiquitin 3 (SEQ ID NO:14) and a Medicago truncatula photosystem II terminator (SEQ ID NO:15). Four plant transformation vectors were created, each comprising one of the CYP gene expression cassettes and an aadA selectable marker expression cassette, conferring resistance to the antibiotics spectinomycin and streptomycin. Soybean cultivar AG3555 seed-derived embryo explants were transformed with the vectors by Agrobacterium-mediated transformation using known methods in the art, and transformed plantlets were selected based on growth in the presence of spectinomycin. Plantlets comprising single copy events were grown in the greenhouse to produce R1 seeds. R1 plants were subsequently selected for homozygous CYP-positive plants, either by molecular analysis of young leaf tissue or by seed chipping prior to planting. These selected plants were then screened for tolerance to icafolin herbicide.
Herbicide tolerance screens were performed by selecting R1 plants at roughly the V2-V3 developmental stage and applying icafolin herbicide with a track sprayer under standard greenhouse conditions. Two independent transgenic events per transgene were screened. The herbicide was formulated with 1% v/v methylated seed oil (MSO) and 2.5% v/v ammonium sulfate (AMS) and sprayed with a XR nozzle at 15 gallons per […] (GPA) to mimic field conditions. The icafolin used in this Example and in the experiments described in Examples 2-4 was a mixture of the methyl ester forms of the 2R, 4R and 2S, 4S isomers. The icafolin formulation was sprayed at two rates: 5 g active ingredient (ai)/hectare (ha) and 25 g ai/ha. The herbicide treated soybean plants were returned to the greenhouse following spray application and allowed to grow under standard conditions. Plants were rated for herbicide injury at approximately 14 and 21 days after treatment (DAT). Untreated transgenic plants and control (wild-type) plants were used for phenotypic comparison. The herbicide injury rating accounts for plant malformation, stunting, chlorosis, necrosis, and plant death relative to the untreated control plants. An injury rating of approximately 90% or above indicates nearly complete plant death. An injury rating of less than 30% indicates partial tolerance, and an injury rating of less than 20% indicates good tolerance. Injury ratings were collected and analyzed, and photographs of representative plants were taken.

[3] = test system: Soy transgenic plants expressing CYP14; assay: Field trial icafolin injury rating, CYP14 soybean; conditions: for Percent Plant Injury (21 DAT): averaged across repetitions, field locations and events
Experimental: Soy transgenic plants expressing CYP14 or CYP15 were assayed in small scale field trails across nine sites in the United States for tolerance to icafolin spray applications. The plants were grown in field plots and sprayed during the early vegetative stages when plants were roughly at the V3 stage. The icafolin formulation was sprayed at either a 5 g ai/ha or 25 g ai/ha application rate with 2 treatment replications per location. The plants were rated for herbicide injury at 7, 14, 21, and 28 days after treatment (DAT). A total of 12 events for CYP14 and 11 events for CYP15 were tested. An event transformed with a non-herbicide tolerance construct served as a negative control to provide a comparison for injury.

[4] = test system: transgenic soybean plants expressing CYP28; assay: Icafolin herbicide injury rating, greenhouse spray, CYP28 soybean; conditions: Table 8
From the text: as §1, §2

[5] = CYP21 Event 344, 5 g ai/ha icafolin
[6] = CYP21 Event 344, 25 g ai/ha icafolin
[7] = CYP21 Event 502, 5 g ai/ha icafolin
[8] = CYP21 Event 502, 25 g ai/ha icafolin
[9] = CYP15 Event 618, 5 g ai/ha icafolin, Experiment 2
[10] = CYP15 Event 618, 25 g ai/ha icafolin, Experiment 2
[11] = CYP15 Event 670, 5 g ai/ha icafolin, Experiment 2
[12] = CYP15 Event 670, 25 g ai/ha icafolin, Experiment 2
[13] = CYP15 Event 784, 5 g ai/ha icafolin, Experiment 2
[14] = CYP15 Event 784, 5 g ai/ha icafolin, Experiment 1
[15] = CYP15 Event 784, 25 g ai/ha icafolin, Experiment 2
[16] = CYP15 Event 784, 25 g ai/ha icafolin, Experiment 1
[17] = CYP15 Event 794, 5 g ai/ha icafolin, Experiment 2
[18] = CYP15 Event 794, 5 g ai/ha icafolin, Experiment 1
[19] = CYP15 Event 794, 25 g ai/ha icafolin, Experiment 2
[20] = CYP15 Event 794, 25 g ai/ha icafolin, Experiment 1
[21] = CYP28 Event 44, 5 g ai/ha icafolin
[22] = CYP28 Event 44, 25 g ai/ha icafolin
[23] = CYP28 Event 90, 5 g ai/ha icafolin
[24] = CYP28 Event 90, 25 g ai/ha icafolin

Question: Which results are given for `C=C[C@]1(C(=O)N[C@H]2CO[C@@H](C(=O)OC)C2)CC(c2cc(F)cc(F)c2)=NO1` (relative stereo) [icafolin, methyl(2R*,4R*)-4-[[(5S)-3-(3,5-difluorophenyl)-5-vinyl-4H-isoxazole-5-carbonyl]amino]tetrahydrofuran-2-carboxylate]?
Answer: Tolerance to icafolin ([1]; CYP21, overall): good tolerance (an injury rating of less than 20% indicates good tolerance); Percent Injury 14 DAT [1, 5]: 2.5%; Percent injury 21 DAT [1, 5]: 5.0%; Percent Injury 14 DAT [1, 6]: 50%; Percent injury 21 DAT [1, 6]: 37.5%; Percent Injury 14 DAT [1, 7]: 7.5%; Percent injury 21 DAT [1, 7]: 5.0%; Percent Injury 14 DAT [1, 8]: 72.5%; Percent injury 21 DAT [1, 8]: 62.5%; injury ([1]; CYP21 events, 5 g ai/ha): less than 10%; injury ([1]; one CYP21 event, 25 g ai/ha): about 50%; injury ([1]; the other CYP21 event, 25 g ai/ha): about 72%; Percent Injury 14 DAT [2, 9]: 23%; Percent injury 21 DAT [2, 9]: 12%; Percent Injury 14 DAT [2, 10]: 60%; Percent injury 21 DAT [2, 10]: 32%; Percent Injury 14 DAT [2, 11]: 10%; Percent injury 21 DAT [2, 11]: 15%; Percent Injury 14 DAT [2, 12]: 52%; Percent injury 21 DAT [2, 12]: 34%; Percent Injury 14 DAT [2, 13]: 8%; Percent Injury 15 DAT [2, 14]: 8%; Percent injury 21 DAT [2, 14]: 3%; Percent injury 21 DAT [2, 13]: 11%; Percent Injury 14 DAT [2, 15]: 78%; Percent Injury 15 DAT [2, 16]: 28%; Percent injury 21 DAT [2, 16]: 32%; Percent injury 21 DAT [2, 15]: 44%; Percent Injury 14 DAT [2, 17]: 12%; Percent Injury 15 DAT [2, 18]: 8%; Percent injury 21 DAT [2, 18]: 6%; Percent injury 21 DAT [2, 17]: 9%; Percent Injury 14 DAT [2, 19]: 78%; Percent Injury 15 DAT [2, 20]: 36%; Percent injury 21 DAT [2, 20]: 41%; Percent injury 21 DAT [2, 19]: 49%; Tolerance to icafolin ([2]; in vivo): unexpected tolerance; injury ([2]; in vivo): less than 30%; Percent Plant Injury (21 DAT) ([3]; 5 g ai/ha icafolin): 11.4%; injury ratings ([3]; 5 g ai/ha, 21 DAT): below 15%; Tolerance to icafolin ([3]; 25 g ai/ha): Incomplete tolerance; Percent Plant Injury (21 DAT) ([3]; 25 g ai/ha icafolin): 41.1%; Percent Injury 14 DAT [4, 21]: 15.6%; Percent injury 21 DAT [4, 21]: 13.3%; Percent Injury 14 DAT [4, 22]: 67.2%; Percent injury 21 DAT [4, 22]: 56.7%; Percent Injury 14 DAT [4, 23]: 28.0%; Percent injury 21 DAT [4, 23]: 13.0%; Percent Injury 14 DAT [4, 24]: 68.0%; Percent injury 21 DAT [4, 24]: 74.0%
